Assay results taken from patent publication US20230048132A1, “CYCLIN-DEPENDENT KINASE INHIBITORS” (SPV THERAPEUTICS INC., priority 2018, published 2023).
Several values for one entry are separate records, joined by “and”; a condition that tells them apart may be missing. Equal values may be shown once. Read-outs that look alike come from different tables or passages of the source.

Assays:
Assay in all cases: CDK inhibition assay (microfluidic LabChip, IC50 format)
CDK9-CYCLINT1 = biological target: T1, CDK9-CYCLINT1 (Homo sapiens, UniProt P50750); assay type: biochemical; settings: read-out: CDK9 CyclinT1 IC50
T1 construct: purchased Carna

CDK7 CyclinH = CDK7 CyclinH (Homo sapiens, UniProt P50613); assay type: biochemical
CDK6-CYCLIND3 = biological target: T2, CDK6-CYCLIND3 (Homo sapiens, UniProt Q00534); assay type: biochemical
T2 construct: purchased Carna

CDK2-CYCLINA = biological target: T3, CDK2-CYCLINA (Homo sapiens, UniProt P24941); assay type: biochemical; settings: read-out: CDK2 CyclinA IC50
T3 construct: purchased Millipore

CDK4-CYCLIND1 = CDK4-CYCLIND1 (Homo sapiens, UniProt P11802)
[1] = Table 4a, read-out: CDK6 CyclinD3 IC50
[2] = CDK4 CyclinD1 IC50, Table 4a, a second value in parentheses for some compounds
[3] = CDK4 CyclinD1 IC50, Table 4b, lower part, a second value in parentheses for some compounds
[4] = Table 4b, lower part, read-out: CDK6 CyclinD3 IC50
[5] = CDK4 IC50, Table 4b, upper part
[6] = Table 4b, upper part, read-out: CDK6 IC50

T2 sequence (Q00534 whole entry): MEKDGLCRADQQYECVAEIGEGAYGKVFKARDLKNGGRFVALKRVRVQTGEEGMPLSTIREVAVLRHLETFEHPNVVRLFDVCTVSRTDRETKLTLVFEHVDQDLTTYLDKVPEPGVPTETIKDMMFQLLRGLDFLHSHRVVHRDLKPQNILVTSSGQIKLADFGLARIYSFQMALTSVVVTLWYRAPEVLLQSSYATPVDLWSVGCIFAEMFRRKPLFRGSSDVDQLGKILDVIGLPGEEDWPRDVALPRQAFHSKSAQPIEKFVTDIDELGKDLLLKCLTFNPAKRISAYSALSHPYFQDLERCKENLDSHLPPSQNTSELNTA
T2 sequence (P30281 whole entry partner): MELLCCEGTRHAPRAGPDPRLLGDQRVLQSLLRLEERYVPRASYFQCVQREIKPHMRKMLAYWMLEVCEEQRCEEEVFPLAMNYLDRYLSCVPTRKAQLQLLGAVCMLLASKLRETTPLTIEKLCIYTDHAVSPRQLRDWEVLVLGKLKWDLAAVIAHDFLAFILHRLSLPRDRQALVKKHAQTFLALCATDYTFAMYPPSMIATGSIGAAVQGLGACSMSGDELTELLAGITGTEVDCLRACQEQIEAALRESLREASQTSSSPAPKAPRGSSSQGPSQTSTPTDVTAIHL
Chain of CDK7 CyclinH (P50613 whole entry): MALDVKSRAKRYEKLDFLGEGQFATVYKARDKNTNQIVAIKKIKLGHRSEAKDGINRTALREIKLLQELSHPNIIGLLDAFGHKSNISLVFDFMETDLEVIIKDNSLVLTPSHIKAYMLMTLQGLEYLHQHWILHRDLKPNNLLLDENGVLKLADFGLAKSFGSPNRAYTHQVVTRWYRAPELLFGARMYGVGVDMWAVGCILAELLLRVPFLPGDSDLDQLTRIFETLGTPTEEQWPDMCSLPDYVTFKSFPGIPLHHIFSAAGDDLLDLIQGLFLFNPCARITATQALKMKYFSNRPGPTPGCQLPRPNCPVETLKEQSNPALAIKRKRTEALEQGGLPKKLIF
Chain of CDK7 CyclinH (P51946 whole entry partner): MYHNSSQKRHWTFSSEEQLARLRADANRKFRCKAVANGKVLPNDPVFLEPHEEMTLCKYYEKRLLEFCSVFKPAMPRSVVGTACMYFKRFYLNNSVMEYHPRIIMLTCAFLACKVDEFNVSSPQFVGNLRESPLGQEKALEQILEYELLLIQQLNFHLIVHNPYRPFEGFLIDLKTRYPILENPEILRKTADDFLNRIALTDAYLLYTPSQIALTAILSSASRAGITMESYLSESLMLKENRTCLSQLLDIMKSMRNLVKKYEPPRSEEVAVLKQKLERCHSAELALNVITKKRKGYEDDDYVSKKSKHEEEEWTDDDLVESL
Chain of CDK7 CyclinH (P51948 whole entry partner): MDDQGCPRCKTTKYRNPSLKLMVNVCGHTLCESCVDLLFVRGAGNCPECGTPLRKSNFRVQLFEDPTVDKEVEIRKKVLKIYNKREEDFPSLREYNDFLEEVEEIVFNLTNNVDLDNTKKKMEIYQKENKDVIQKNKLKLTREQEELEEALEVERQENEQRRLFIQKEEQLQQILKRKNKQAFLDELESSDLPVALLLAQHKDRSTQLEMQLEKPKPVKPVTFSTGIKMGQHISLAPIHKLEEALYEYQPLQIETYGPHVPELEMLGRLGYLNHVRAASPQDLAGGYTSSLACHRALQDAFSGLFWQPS
Chain of CDK4-CYCLIND1 (P11802 whole entry): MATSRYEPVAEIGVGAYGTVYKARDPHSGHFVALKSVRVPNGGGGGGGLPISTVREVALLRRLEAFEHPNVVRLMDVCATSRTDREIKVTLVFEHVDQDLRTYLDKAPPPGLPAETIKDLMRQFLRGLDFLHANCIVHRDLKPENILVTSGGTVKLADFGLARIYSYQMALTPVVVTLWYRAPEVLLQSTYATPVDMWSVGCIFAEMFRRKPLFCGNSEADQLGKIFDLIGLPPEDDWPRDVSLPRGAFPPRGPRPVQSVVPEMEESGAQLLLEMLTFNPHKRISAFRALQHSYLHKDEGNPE
Chain of CDK4-CYCLIND1 (P24385 whole entry partner): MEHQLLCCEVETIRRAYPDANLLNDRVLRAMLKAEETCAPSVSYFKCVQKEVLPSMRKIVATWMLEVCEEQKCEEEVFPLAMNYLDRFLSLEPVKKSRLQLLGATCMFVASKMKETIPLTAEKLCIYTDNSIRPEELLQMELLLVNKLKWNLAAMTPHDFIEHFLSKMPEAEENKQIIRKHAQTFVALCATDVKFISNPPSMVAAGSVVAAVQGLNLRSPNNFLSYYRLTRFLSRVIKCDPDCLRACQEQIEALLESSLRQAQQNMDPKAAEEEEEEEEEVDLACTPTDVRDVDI
T1 sequence (P50750 whole entry): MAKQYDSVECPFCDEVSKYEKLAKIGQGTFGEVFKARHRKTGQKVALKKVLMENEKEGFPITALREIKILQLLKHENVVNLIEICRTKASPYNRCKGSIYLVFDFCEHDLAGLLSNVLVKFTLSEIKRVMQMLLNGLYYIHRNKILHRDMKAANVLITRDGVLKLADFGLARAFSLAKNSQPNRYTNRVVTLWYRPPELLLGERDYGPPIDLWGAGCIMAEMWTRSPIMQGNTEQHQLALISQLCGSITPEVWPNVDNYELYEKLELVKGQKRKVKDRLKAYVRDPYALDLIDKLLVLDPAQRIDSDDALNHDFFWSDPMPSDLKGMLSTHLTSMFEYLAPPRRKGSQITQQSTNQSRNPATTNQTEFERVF
T1 sequence (O60563 whole entry partner): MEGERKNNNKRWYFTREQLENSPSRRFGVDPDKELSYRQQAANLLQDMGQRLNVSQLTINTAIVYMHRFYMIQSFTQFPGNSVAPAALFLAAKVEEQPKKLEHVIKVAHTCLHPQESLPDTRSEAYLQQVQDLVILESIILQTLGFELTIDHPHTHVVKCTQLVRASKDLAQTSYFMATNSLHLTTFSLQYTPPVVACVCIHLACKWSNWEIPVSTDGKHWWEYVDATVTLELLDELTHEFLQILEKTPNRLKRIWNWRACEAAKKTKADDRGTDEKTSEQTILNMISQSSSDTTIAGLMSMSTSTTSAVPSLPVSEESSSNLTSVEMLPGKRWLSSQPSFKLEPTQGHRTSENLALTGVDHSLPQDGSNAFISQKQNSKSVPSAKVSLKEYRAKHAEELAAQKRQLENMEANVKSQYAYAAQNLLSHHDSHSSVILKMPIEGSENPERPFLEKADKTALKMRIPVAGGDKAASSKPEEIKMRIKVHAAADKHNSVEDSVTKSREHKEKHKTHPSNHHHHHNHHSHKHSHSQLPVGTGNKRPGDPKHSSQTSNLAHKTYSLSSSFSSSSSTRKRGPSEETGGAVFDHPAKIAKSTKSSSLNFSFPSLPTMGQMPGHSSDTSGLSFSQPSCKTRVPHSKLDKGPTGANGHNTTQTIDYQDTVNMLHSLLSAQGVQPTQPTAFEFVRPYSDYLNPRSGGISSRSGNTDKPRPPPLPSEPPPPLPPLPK

Row | IC50 (CDK9-CYCLINT1; Table 4a) | IC50 (CDK7 CyclinH; Table 4a) | IC50 (CDK6-CYCLIND3; [1]) | IC50 (CDK2-CYCLINA; Table 4a) | IC50 (CDK4-CYCLIND1; [2]) | Compound | further results
1 | 307 nM | 13900 nM | 79.2 nM | 1860 nM | – | COc1cc(N2CCN(C)CC2)ccc1Nc1ncc2c(n1)N(C1CCCC1)C(=O)[C@]1(CCNC1=O)C2 [Example D166, (S)-8-cyclopentyl-2-((2-methoxy-4-(4-methylpiperazin-1-yl)phenyl)amino)-5,8-dihydro-7H-spiro[pyrido[2,3-d]pyrimidine-6,3′-pyrrolidine]-2′,7-dione] | –
2 | 5.74 nM | 682 nM | 11.6 nM | 110 nM | 5.37 nM | O=C1NCC[C@@]12Cc1cnc(Nc3ccc(N4CC5(CNC5)C4)c(F)c3)nc1N(C1CCCC1)C2=O [Example D173, (S)-8-cyclopentyl-2-((3-fluoro-4-(2,6-diazaspiro[3.3]heptan-2-yl)phenyl)amino)-5,8-dihydro-7H-spiro[pyrido[2,3-d]pyrimidine-6,3′-pyrrolidine]-2′,7-dione] | –
3 | 418 nM | 12000 nM | 111 nM | 2900 nM | 69 nM | COc1cc(N2CCN(C(C)C)CC2)ccc1Nc1ncc2c(n1)N(C1CCCC1)C(=O)[C@]1(CCNC1=O)C2 [Example D167, (S)-8-cyclopentyl-2-((4-(4-isopropylpiperazin-1-yl)-2-methoxyphenyl)amino)-5,8-dihydro-7H-spiro[pyrido[2,3-d]pyrimidine-6,3′-pyrrolidine]-2′,7-dione] | –
4 | 7.27 nM | 157 nM | 3.88 nM | 30.5 nM | 1.29 nM | COc1cc(Nc2ncc3c(n2)N(C2CCCC2)C(=O)[C@]2(CCNC2=O)C3)ccc1N1CCN(C(C)C)CC1 [Example D161, (S)-8-cyclopentyl-2-((4-(4-isopropylpiperazin-1-yl)-3-methoxyphenyl)amino)-5,8-dihydro-7H-spiro[pyrido[2,3-d]pyrimidine-6,3′-pyrrolidine]-2′,7-dione] | –
5 | 1180 nM | 14700 nM | 8.58 nM | 3440 nM | 6.22 nM | CCN1CCN(Cc2ccc(Nc3ncc4c(n3)N(C3CCCC3)C(=O)[C@]3(CCNC3=O)C4)nc2)CC1 [Example D155, (S)-8-cyclopentyl-2-((5-((4-ethylpiperazin-1-yl)methyl)pyridin-2-yl)amino)-5,8-dihydro-7H-spiro[pyrido[2,3-d]pyrimidine-6,3′-pyrrolidine]-2′,7-dione] | –
6 | 7.52 nM | 340 nM | 2.82 nM | 35.6 nM | 1.22 nM | O=C1NCC[C@@]12Cc1cnc(Nc3ccc(N4CCNCC4)nc3)nc1N(C1CCCC1)C2=O [Example D149, (S)-8-cyclopentyl-2-((6-(piperazin-1-yl)pyridin-3-yl)amino)-5,8-dihydro-7H-spiro[pyrido[2,3-d]pyrimidine-6,3′-pyrrolidine]-2′,7-dione] | –
7 | 271 nM | 26500 nM | 3.78 nM | 2840 nM | 1.98 nM | CC(C)N1CC2(CN(c3ccc(Nc4ncc5c(n4)N(C4CCCC4)C(=O)[C@]4(CCNC4=O)C5)nc3)C2)C1 [Example D171, (S)-8-cyclopentyl-2-((5-(6-isopropyl-2,6-diazaspiro[3.3]heptan-2-yl)pyridin-2-yl)amino)-5,8-dihydro-7H-spiro[pyrido[2,3-d]pyrimidine-6,3′-pyrrolidine]-2′,7-dione] | –
8 | – | – | – | – | – | CN1CCN(c2ccc(Nc3ncc4c(n3)N(C35CC(C3)C5)C(=O)[C@]3(CCNC3=O)C4)cc2F)CC1 [Example D185, (S)-8-(bicyclo[1.1.1]pentan-1-yl)-2-((3-fluoro-4-(4-methylpiperazin-1-yl)phenyl)amino)-5,8-dihydro-7H-spiro[pyrido[2,3-d]pyrimidine-6,3′-pyrrolidine]-2′,7-dione] | IC50 (CDK9-CYCLINT1; Table 4b, lower part): 36.7 nM; IC50 (CDK4-CYCLIND1; [3]): 15.6 nM; IC50 (CDK7 CyclinH; Table 4b, lower part): 1170 nM; IC50 (CDK6-CYCLIND3; [4]): 31.2 nM; IC50 (CDK2-CYCLINA; Table 4b, lower part): 1060 nM
9 | 61.9 nM | 3240 nM | 10.4 nM | 382 nM | 5.34 nM | Cc1cc(N2CCNCC2)ccc1Nc1ncc2c(n1)N(C1CCCC1)C(=O)[C@]1(CCNC1=O)C2 [Example D162, (S)-8-cyclopentyl-2-((2-methyl-4-(piperazin-1-yl)phenyl)amino)-5,8-dihydro-7H-spiro[pyrido[2,3-d]pyrimidine-6,3′-pyrrolidine]-2′,7-dione] | –
10 | 390 nM | > 100000 nM | 53.1 nM | 8560 nM | 42.3 nM | CC(C)n1cc(-c2ccc(Nc3ncc4c(n3)N(C3CCCC3)C(=O)[C@]3(CCNC3=O)C4)nc2)cn1 [Example D170, (S)-8-cyclopentyl-2-((5-(1-isopropyl-1H-pyrazol-4-yl)pyridin-2-yl)amino)-5,8-dihydro-7H-spiro[pyrido[2,3-d]pyrimidine-6,3′-pyrrolidine]-2′,7-dione] | –
11 | – | – | – | – | – | O=C1NCC[C@@]12Cc1cnc(Nc3ccc(N4CCNCC4)c(F)c3)nc1N(C13CC(C1)C3)C2=O [Example D184, (S)-8-(bicyclo[1.1.1]pentan-1-yl)-2-((3-fluoro-4-(piperazin-1-yl)phenyl)amino)-5,8-dihydro-7H-spiro[pyrido[2,3-d]pyrimidine-6,3′-pyrrolidine]-2′,7-dione] | IC50 (CDK9-CYCLINT1; Table 4b, lower part): 46.8 nM; IC50 (CDK4-CYCLIND1; [3]): 19.6 nM and 11.1 nM; IC50 (CDK7 CyclinH; Table 4b, lower part): 1690 nM; IC50 (CDK6-CYCLIND3; [4]): 43.5 nM; IC50 (CDK2-CYCLINA; Table 4b, lower part): 1400 nM
12 | 6.52 nM | 3100 nM | 30 nM | 55.4 nM | – | O=C1NCC[C@@]12Cc1cnc(Nc3ccc(-c4cn[nH]c4)cc3)nc1N(C1CCCC1)C2=O [Example D168, (S)-2-((4-(1H-pyrazol-4-yl)phenyl)amino)-8-cyclopentyl-5,8-dihydro-7H-spiro[pyrido[2,3-d]pyrimidine-6,3′-pyrrolidine]-2′,7-dione] | –
13 | – | – | – | – | – | CN1CCN(c2ccc(Nc3ncc4c(n3)N(C35CC(C3)C5)C(=O)[C@]3(CCNC3=O)C4)nc2)CC1 [Example D188, (S)-8-(bicyclo[1.1.1]pentan-1-yl)-2-((5-(4-methylpiperazin-1-yl)pyridin-2-yl)amino)-5,8-dihydro-7H-spiro[pyrido[2,3-d]pyrimidine-6,3′-pyrrolidine]-2′,7-dione] | IC50 (CDK9-CYCLINT1; Table 4b, lower part): > 100000 nM; IC50 (CDK4-CYCLIND1; [3]): 10600 nM; IC50 (CDK7 CyclinH; Table 4b, lower part): > 100000 nM; IC50 (CDK6-CYCLIND3; [4]): 21700 nM; IC50 (CDK2-CYCLINA; Table 4b, lower part): > 100000 nM
14 | 65.1 nM | 2630 nM | 10.6 nM | 338 nM | 9.02 nM | Cc1cc(N2CCN(C)CC2)ccc1Nc1ncc2c(n1)N(C1CCCC1)C(=O)[C@]1(CCNC1=O)C2 [Example D163, (S)-8-cyclopentyl-2-((2-methyl-4-(4-methylpiperazin-1-yl)phenyl)amino)-5,8-dihydro-7H-spiro[pyrido[2,3-d]pyrimidine-6,3′-pyrrolidine]-2′,7-dione] | –
15 | 2.92 nM | 2820 nM | 9.37 nM | 33.5 nM | – | Cn1cc(-c2ccc(Nc3ncc4c(n3)N(C3CCCC3)C(=O)[C@]3(CCNC3=O)C4)cc2)cn1 [Example D169, (S)-8-cyclopentyl-2-((4-(1-methyl-1H-pyrazol-4-yl)phenyl)amino)-5,8-dihydro-7H-spiro[pyrido[2,3-d]pyrimidine-6,3′-pyrrolidine]-2′,7-dione] | –
16 | – | – | – | – | – | CC(C)N1CCN(c2ccc(Nc3ncc4c(n3)N(C3CCCC3)C(=O)C3(CCNC3=O)C4)cc2F)CC1 (centres unmarked) [Example D10, 8-cyclopentyl-2-((3-fluoro-4-(4-isopropylpiperazin-1-yl)phenyl)amino)-5,8-dihydro-7H-spiro[pyrido[2,3-d]pyrimidine-6,3′-pyrrolidine]-2′,7-dione] | IC50 (CDK4-CYCLIND1; [5]): 1.5 nM; IC50 (CDK4-CYCLIND1; Racemate Activity CDK4, Table 3, first value of the cell CDK4/CDK6, value of the racemate): 1.5 nM; IC50 (CDK6-CYCLIND3; Table 3, second value of the cell CDK4/CDK6, value of the racemate, read-out: Racemate Activity CDK6): 3.5 nM; IC50 (CDK6-CYCLIND3; [6]): 3.53 nM
17 | – | – | – | – | – | O=C1NCC[C@@]12Cc1cnc(Nc3ccc(OCCN4CCCC4)nc3)nc1N(C1CCCC1)C2=O [Example D191, (S)-8-cyclopentyl-2-((6-(2-(pyrrolidin-1-yl)ethoxy)pyridin-3-yl)amino)-5,8-dihydro-7H-spiro[pyrido[2,3-d]pyrimidine-6,3′-pyrrolidine]-2′,7-dione] | IC50 (CDK4-CYCLIND1; [3]): 6.27 nM; IC50 (CDK6-CYCLIND3; [4]): 11.2 nM
18 | – | – | – | – | – | CN(C)CCOc1ccc(Nc2ncc3c(n2)N(C2CCCC2)C(=O)C2(CCNC2=O)C3)cn1 (centres unmarked) [Example D14, 8-cyclopentyl-2-((6-(2-(dimethylamino)ethoxy)pyridin-3-yl)amino)-5,8-dihydro-7H-spiro[pyrido[2,3-d]pyrimidine-6,3′-pyrrolidine]-2′,7-dione] | IC50 (CDK4-CYCLIND1; [5]): 10.7 nM; IC50 (CDK6-CYCLIND3; [6]): 20.7 nM
19 | – | – | – | – | – | CC(C)N1CCN(c2ccc(Nc3ncc4c(n3)N(C3CCCC3)C(=O)C3(CCNC3=O)C4)cc2)CC1 (centres unmarked) [Example D5] | IC50 (CDK4-CYCLIND1; [5]): 2.64 nM; IC50 (CDK6-CYCLIND3; [6]): 5.67 nM
20 | – | – | – | – | – | CN(C)CCOc1ccc(Nc2ncc3c(n2)N(C2CCCC2)C(=O)C2(CC(=O)N(C)C2=O)C3)cn1 (centres unmarked) [Example D29, 8-cyclopentyl-2-((6-(2-(dimethylamino)ethoxy)pyridin-3-yl)amino)-1′-methyl-5,8-dihydro-7H-spiro[pyrido[2,3-d]pyrimidine-6,3′-pyrrolidine]-2′,5′,7-trione] | IC50 (CDK4-CYCLIND1; [5]): 367 nM; IC50 (CDK6-CYCLIND3; [6]): 1050 nM
21 | – | – | – | – | – | O=C1NCCC12Cc1cnc(Nc3ccc(N4CC5(CNC5)C4)cn3)nc1N(C1CCCC1)C2=O (centres unmarked) [Example D41, 2-((5-(2,6-diazaspiro[3.3]heptan-2-yl)pyridin-2-yl)amino)-8-cyclopentyl-5,8-dihydro-7H-spiro[pyrido[2,3-d]pyrimidine-6,3′-pyrrolidine]-2′,7-dione] | IC50 (CDK4-CYCLIND1; [5]): 4.61 nM; IC50 (CDK6-CYCLIND3; [6]): 8.79 nM
